Measured values taken from patent publication US20250188110A1, “SPECIFIC SMALL MOLECULE INHIBITORS THAT BLOCK KMT9 METHYLTRANSFERASE ACTIVITY AND FUNCTION” (ALBERT-LUDWIGS-UNIVERSITÄT FREIBURG, priority 2021, published 2025).
Read-outs that look alike come from different tables or passages of the source.

How the values were obtained:
KMT9 [1] = biological target: T1, KMT9 (Homo sapiens, UniProt Q9Y5N5); test: Microscale thermophoresis (MST) KMT9 binding
T1 sequence (Q9Y5N5 1-214): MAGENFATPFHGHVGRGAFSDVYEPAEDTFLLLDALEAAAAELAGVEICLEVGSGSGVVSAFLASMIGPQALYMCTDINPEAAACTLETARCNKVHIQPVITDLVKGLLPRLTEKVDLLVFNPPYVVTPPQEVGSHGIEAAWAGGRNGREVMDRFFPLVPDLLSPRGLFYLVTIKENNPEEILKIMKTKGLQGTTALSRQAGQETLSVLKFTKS
T1 sequence (Q9UI30 1-120 isoform Q9UI30-2 partner): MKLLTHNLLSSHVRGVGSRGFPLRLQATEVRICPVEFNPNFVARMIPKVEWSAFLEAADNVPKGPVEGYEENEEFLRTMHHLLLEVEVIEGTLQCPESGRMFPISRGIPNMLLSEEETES
Outline: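 His-tagged KMT9 (20 nM), RED-Tris-NTA labelled, titrated with varying compound concentrations in 25 mM HEPES pH 7.5, 100 mM NaCl, 1 mM DTT, 0.05% Tween. MST at 40% MST and 100% LED power, Nano-RED excitation; Kd binned A ≤10 nM, B 10–100, C 100–1000, D >1000 nM.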

KMT9 [2] = biological target: T1, KMT9; test: KMT9 thermal shift assay (SyproOrange); type: binding
Outline: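 Recombinant KMT9 was incubated with compound and SyproOrange at 25° C in 50 mM BTP pH 8.5, 1 mM MgCl2, 1 mM DTT. It was then heated from 20° C to 95° C at 1° C per 15 s with fluorescence read each step. Tm came from a Boltzmann sigmoidal fit; ΔTm relative to DMSO control, binned in 5 K ranges.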

KMT9 [3] = biological target: T1, KMT9; test: KMT9 methyltransferase inhibition assay, MTaseGlo luminescence (from entry 155); type: biochemical; conditions: 100 nM KMT9, 5 μM ETF1, 1 μM SAM
Outline: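 KMT9 (100 nM final) pre-incubated with inhibitor for 15 min at room temperature, then reacted with 5 μM ETF1 and 1 μM SAM for 2 h at 30° C. at 2% DMSO final. MTaseGlo luminescence read after 60 min detection; IC50 reported in four potency bins.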

[4] = His-tag labelled KMT9 20 nM, Kd class, read-out: MST
[5] = ΔTm class, 500 uM compound, 2 μM KMT9, read-out: Thermal shift
[6] = IC50 class, MTaseGlo procedure (entries from 155 on), read-out: Inhibition
[7] = His-tag labelled KMT9 20 nM, read-out: MST (Kd)
[8] = 500 µM compound, 2 μM KMT9, read-out: Thermal shift (ΔTm)
[9] = MTaseGlo procedure (entries from 155), read-out: Inhibition (IC50)

## CN1CCC([C@H]2C[C@@H](n3cc(-c4nc(Cc5ccccc5)cs4)c4c(N)nc(Cl)nc43)[C@H](O)[C@@H]2O)CC1 [Compound 505, (1R,2S,3R,5R)-3-(4-amino-5-(4-benzylthiazol-2-yl)-2-chloro-7H-pyrrolo[2,3-d]pyrimidin-7-yl)-5-(1-methylpiperidin-4-yl)cyclopentane-1,2-diol]
KMT9 [1]; [4]
  Kd: ≤ 10 nM
KMT9 [2]; [5]
  ΔTm at 500 µM: > 20 °C
KMT9 [3]; [6]
  IC50: 100 to 1000 nM

## CC(C)N1CCC([C@H]2C[C@@H](n3cc(-c4nc(Cc5ccccc5)cs4)c4c(N)nc(Cl)nc43)[C@H](O)[C@@H]2O)CC1 [Compound 506, (1R,2S,3R,5R)-3-[4-amino-5-(4-benzyl-1,3-thiazol-2-yl)-2-chloropyrrolo[2,3-d]pyrimidin-7-yl]-5-(1-isopropylpiperidin-4-yl)cyclopentane-1,2-diol]
KMT9 [1]; [4]
  Kd: ≤ 10 nM
KMT9 [2]; [5]
  ΔTm at 500 µM: > 20 °C
KMT9 [3]; [6]
  IC50: 100 to 1000 nM

## Nc1nc(Cl)nc2c1c(-c1nc(Cc3ccccc3)cs1)cn2[C@@H]1C[C@H](C2CCN(CC3CC3)CC2)[C@@H](O)[C@H]1O [Compound 507, (1R,2S,3R,5R)-3-[4-amino-5-(4-benzyl-1,3-thiazol-2-yl)-2-chloropyrrolo[2,3-d]pyrimidin-7-yl]-5-[1-(cyclopropylmethyl)piperidin-4-yl]cyclopentane-1,2-diol]
KMT9 [1]; [4]
  Kd: ≤ 10 nM
KMT9 [2]; [5]
  ΔTm at 500 µM: > 20 °C
KMT9 [3]; [6]
  IC50: 100 to 1000 nM

## Nc1nc(Cl)nc2c1c(-c1nc(Cc3ccccc3)cs1)cn2[C@@H]1C[C@H](C2CCN(CCF)CC2)[C@@H](O)[C@H]1O [Compound 508, (1R,2S,3R)-3-[4-amino-5-(4-benzyl-1,3-thiazol-2-yl)-2-chloropyrrolo[2,3-d]pyrimidin-7-yl]-5-[1-(2-fluoroethyl)piperidin-4-yl]cyclopentane-1,2-diol]
KMT9 [1]; [7]
  Kd: ≤ 10 nM
KMT9 [2]; [8]
  ΔTm at 500 µM: 15 to 20 °C
KMT9 [3]; [9]
  IC50: 100 to 1000 nM

## C=CCN1CCC([C@H]2C[C@@H](n3cc(-c4nc(Cc5ccccc5)cs4)c4c(N)nc(Cl)nc43)[C@H](O)[C@@H]2O)CC1 [Compound 509, (1R,2S,3R,5R)-3-[4-amino-5-(4-benzyl-1,3-thiazol-2-yl)-2-chloropyrrolo[2,3-d]pyrimidin-7-yl]-5-[1-(prop-2-en-1-yl)piperidin-4-yl]cyclopentane-1,2-diol]
KMT9 [1]; [7]
  Kd: ≤ 10 nM
KMT9 [2]; [8]
  ΔTm at 500 µM: 15 to 20 °C
KMT9 [3]; [9]
  IC50: 1000 to 10000 nM

## CC(=O)CN1CCC([C@H]2C[C@@H](n3cc(-c4nc(Cc5ccccc5)cs4)c4c(N)nc(Cl)nc43)[C@H](O)[C@@H]2O)CC1 [Compound 510, 1-{4-[(1R,2R,3S,4R)-4-[4-amino-5-(4-benzyl-1,3-thiazol-2-yl)-2-chloropyrrolo[2,3-d]pyrimidin-7-yl]-2,3-dihydroxycyclopentyl]piperidin-1-yl}propan-2-one]
KMT9 [1]; [7]
  Kd: 10 to 100 nM
KMT9 [2]; [8]
  ΔTm at 500 µM: 15 to 20 °C
KMT9 [3]; [9]
  IC50: 100 to 1000 nM

## Nc1nc(Cl)nc2c1c(-c1nc(Cc3ccccc3)cs1)cn2[C@@H]1C[C@H](C2CCN(CC(F)F)CC2)[C@@H](O)[C@H]1O [Compound 511, (1R,2S,3R,5R)-3-[4-amino-5-(4-benzyl-1,3-thiazol-2-yl)-2-chloropyrrolo[2,3-d]pyrimidin-7-yl]-5-[1-(2,2-difluoroethyl)piperidin-4-yl]cyclopentane-1,2-diol]
KMT9 [1]; [7]
  Kd: 100 to 1000 nM
KMT9 [2]; [8]
  ΔTm at 500 µM: 10 to 15 °C
KMT9 [3]; [9]
  IC50: 1000 to 10000 nM

## Nc1nc(Cl)nc2c1c(-c1nccs1)cn2[C@@H]1C[C@H](C2CCN(CCc3ccncc3)CC2)[C@@H](O)[C@H]1O [Compound 514, (1R,2S,3R,5R)-3-[4-amino-2-chloro-5-(1,3-thiazol-2-yl)pyrrolo[2,3-d]pyrimidin-7-yl]-5-{1-[2-(pyridin-4-yl)ethyl]piperidin-4-yl}cyclopentane-1,2-diol]
KMT9 [1]; [7]
  Kd: ≤ 10 nM
KMT9 [2]; [8]
  ΔTm at 500 µM: 15 to 20 °C
KMT9 [3]; [9]
  IC50: 100 to 1000 nM

## CN1CCCC([C@H]2C[C@@H](n3cc(-c4nc(Cc5ccccc5)cs4)c4cnc(Cl)nc43)[C@H](O)[C@@H]2O)C1 (stereo partly drawn) [Compound 515, (1R,2S,3R)-3-[5-(4-benzyl-1,3-thiazol-2-yl)-2-chloropyrrolo[2,3-d]pyrimidin-7-yl]-5-(1-methylpiperidin-3-yl)cyclopentane-1,2-diol]
KMT9 [1]; [4]
  Kd: 100 to 1000 nM
KMT9 [2]; [5]
  ΔTm at 500 µM: 15 to 20 °C
KMT9 [3]; [6]
  IC50: 1000 to 10000 nM

## O[C@@H]1[C@H](O)[C@@H](C2CCCN(CC(F)(F)F)C2)C[C@H]1n1cc(-c2nc(Cc3ccccc3)cs2)c2cnc(Cl)nc21 (stereo partly drawn) [Compound 517, (1R,2S,3R,5R)-3-(5-(4-benzylthiazol-2-yl)-2-chloro-7H-pyrrolo[2,3-d]pyrimidin-7-yl)-5-(1-(2,2,2-trifluoroethyl)-313-piperidin-3-yl)cyclopentane-1,2-diol]
KMT9 [1]; [4]
  Kd: > 1000 nM
KMT9 [2]; [5]
  ΔTm at 500 µM: ≤ 10 °C
KMT9 [3]; [6]
  IC50: > 10000 nM

## O[C@@H]1[C@H](O)[C@@H](C2CCCN(CCc3ccccc3)C2)C[C@H]1n1cc(-c2nc(Cc3ccccc3)cs2)c2cnc(Cl)nc21 (stereo partly drawn) [Compound 518, (1R,2S,3R,5R)-3-(5-(4-benzylthiazol-2-yl)-2-chloro-7H-pyrrolo[2,3-d]pyrimidin-7-yl)-5-(1-phenethylpiperidin-3-yl)cyclopentane-1,2-diol]
KMT9 [1]; [4]
  Kd: > 1000 nM
KMT9 [2]; [5]
  ΔTm at 500 µM: ≤ 10 °C
KMT9 [3]; [6]
  IC50: > 10000 nM

## Nc1nc(Cl)nc2c1c(-c1ccn(S(=O)(=O)c3ccccc3)n1)cn2[C@@H]1C[C@H](C2CCN(CCc3ccccc3)CC2)[C@@H](O)[C@H]1O [Compound 519, (1R,2S,3R,5R)-3-{4-amino-5-[1-(benzenesulfonyl)pyrazol-3-yl]-2-chloropyrrolo[2,3-d]pyrimidin-7-yl}-5-[1-(2-phenylethyl)piperidin-4-yl]cyclopentane-1,2-diol]
KMT9 [1]; [7]
  Kd: ≤ 10 nM
KMT9 [2]; [8]
  ΔTm at 500 µM: > 20 °C
KMT9 [3]; [9]
  IC50: 100 to 1000 nM

## Nc1nc(Cl)nc2c1c(-c1nc(Cc3ccccc3)cs1)cn2[C@@H]1C[C@H](C2CCN(C[C@H]3CCOC3)CC2)[C@@H](O)[C@H]1O [Compound 521R, (1R,2S,3R,5R)-3-(4-amino-5-(4-benzylthiazol-2-yl)-2-chloro-7H-pyrrolo[2,3-d]pyrimidin-7-yl)-5-(1-(((R)-tetrahydrofuran-3-yl)methyl)piperidin-4-yl)cyclopentane-1,2-diol]
KMT9 [1]; [7]
  Kd: 10 to 100 nM
KMT9 [2]; [8]
  ΔTm at 500 µM: 15 to 20 °C
KMT9 [3]; [9]
  IC50: 1000 to 10000 nM

## O[C@@H]1[C@H](O)[C@@H](C2CCNCC2)C[C@H]1n1cc(-c2ccn(Cc3ccccc3)n2)c2cnc(Cl)nc21 [Compound 522, (1R,2S,3R,5R)-3-(5-(1-benzyl-1H-pyrazol-3-yl)-2-chloro-7H-pyrrolo[2,3-d]pyrimidin-7-yl)-5-(piperidin-4-yl)cyclopentane-1,2-diol]
KMT9 [1]; microscale thermophoresis, His-tag labelled KMT9 (20 nM), read-out: MST
  Kd: 100 to 1000 nM
KMT9 [2]; ΔTm, 500 µM compound, 2 μM KMT9, 5X SO, read-out: Thermal shift
  ΔTm at 500 µM: 15 to 20 °C
KMT9 [3]; from entry 155: MTaseGlo assay, read-out: Inhibition
  IC50: 1000 to 10000 nM

## Nc1nc(Cl)nc2c1c(-c1nc(Cc3ccccc3)cs1)cn2[C@@H]1C[C@H](C2CCN(CC3CCCC3)CC2)[C@@H](O)[C@H]1O [Compound 523, (1R,2S,3R,5R)-3-(4-amino-5-(4-benzylthiazol-2-yl)-2-chloro-7H-pyrrolo[2,3-d]pyrimidin-7-yl)-5-(1-(cyclopentylmethyl)piperidin-4-yl)cyclopentane-1,2-diol]
KMT9 [1]; [7]
  Kd: 100 to 1000 nM
KMT9 [2]; [8]
  ΔTm at 500 µM: 10 to 15 °C
KMT9 [3]; [9]
  IC50: 1000 to 10000 nM

## Nc1nc(Cl)nc2c1c(-c1nc(Cc3ccccc3)cs1)cn2[C@@H]1C[C@H](C2CCN(Cc3ccn[nH]3)CC2)[C@@H](O)[C@H]1O [Compound 524, (1R,2S,3R,5R)-3-[4-amino-5-(4-benzyl-1,3-thiazol-2-yl)-2-chloropyrrolo[2,3-d]pyrimidin-7-yl]-5-[1-(2H-pyrazol-3-ylmethyl)piperidin-4-yl]cyclopentane-1,2-diol]
KMT9 [1]; [7]
  Kd: 10 to 100 nM
KMT9 [2]; [8]
  ΔTm at 500 µM: 15 to 20 °C
KMT9 [3]; [9]
  IC50: 100 to 1000 nM
